How the values were obtained:
Type in all cases: cell-based
PfCRT^Dd2 [1] = biological target: T1, PfCRT^Dd2 (Plasmodium falciparum, UniProt Q9N623, A220S/I356T/K76T/M74I/N326S/N75E/Q271E/R371I); test: cell-based; details: for PfCRT-mediated [3H]CQ transport, trans-stimulation (% PfCRTDd2 control): PfCRTDd2 oocytes, normalised to oocyte type control; for [3H]CQ transport (% PfCRTDd2 control), trans-stimulation, PfCRTDd2: PfCRT-mediated component (background subtracted), mean ± SEM, SEM
Method: (§1) Unless specified otherwise, the transport assays were conducted over 1.5 h at 27.5 °C and the reaction buffer was ND96 (96 mM NaCl, 2 mM KCl, 1 mM MgCl2, 1.8 mM CaCl2, 10 mM MES and 10 mM Tris-base) at pH 5.5.
(§2) The intracellular concentrations were calculated using previous estimates of the volume of stage V–VI oocytes (~400 nL[60]). […] The oocytes were injected with VF-6 suspended in 25 nL ND96 buffer adjusted to pH 5.0, 5.5, 6.0 or 7.0, which corresponded to the injection of 2.5–250 fmol of H^+. The Na^+-dependence of the trans-stimulatory effect of VF-6 was assessed by injecting the oocytes with VF-6 suspended in ND96 buffer (pH 5.5) or a Na^+-free version of this buffer (the Na^+ was replaced with choline).
(§3) At least four independent experiments were performed (on different days and using oocytes from different frogs), and within each experiment measurements were made from ten oocytes per treatment.

PfCRT^Ecu1110 [2] = biological target: T2, PfCRT^Ecu1110 (Plasmodium falciparum, UniProt Q9N623, A220S/I356L/K76T/N326D); test: cell-based; details: for PfCRT-mediated [3H]CQ transport, trans-stimulation (% PfCRTEcu1110 control): PfCRTEcu1110 oocytes, normalised to oocyte type control; for [3H]CQ transport (% PfCRTDd2 control), trans-stimulation, PfCRTEcu1110: PfCRT-mediated component (background subtracted), sheet title says normalised to PfCRTDd2 control, mean ± SEM, SEM
T2 sequence (Q9N623 whole entry A220S/I356L/K76T/N326D): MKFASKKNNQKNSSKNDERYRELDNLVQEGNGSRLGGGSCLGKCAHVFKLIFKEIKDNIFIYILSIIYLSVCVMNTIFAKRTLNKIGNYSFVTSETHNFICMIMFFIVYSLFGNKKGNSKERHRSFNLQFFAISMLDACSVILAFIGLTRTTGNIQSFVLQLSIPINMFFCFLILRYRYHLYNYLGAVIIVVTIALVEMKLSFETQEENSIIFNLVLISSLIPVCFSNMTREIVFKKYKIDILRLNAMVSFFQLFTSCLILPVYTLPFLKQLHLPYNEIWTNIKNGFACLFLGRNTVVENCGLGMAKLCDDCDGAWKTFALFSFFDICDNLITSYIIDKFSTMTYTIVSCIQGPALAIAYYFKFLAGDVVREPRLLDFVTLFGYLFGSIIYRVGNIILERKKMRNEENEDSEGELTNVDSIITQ
Method: as §1, §2, §3

PfCRT^3D7 = PfCRT^3D7 (Plasmodium falciparum, UniProt Q8IBZ9); test: cell-based; details: PfCRT3D7 oocytes, normalised to oocyte type control
PfCRT^3D7, sequence (Q8IBZ9 59-398): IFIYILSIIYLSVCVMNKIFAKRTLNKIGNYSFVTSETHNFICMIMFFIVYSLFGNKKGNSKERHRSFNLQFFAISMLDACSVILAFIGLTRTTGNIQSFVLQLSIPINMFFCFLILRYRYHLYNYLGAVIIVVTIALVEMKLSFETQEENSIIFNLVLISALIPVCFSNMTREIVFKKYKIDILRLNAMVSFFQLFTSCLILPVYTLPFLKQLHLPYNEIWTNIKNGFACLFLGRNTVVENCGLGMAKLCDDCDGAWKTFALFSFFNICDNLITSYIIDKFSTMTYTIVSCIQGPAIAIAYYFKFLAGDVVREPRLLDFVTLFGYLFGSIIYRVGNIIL
Method: as §1, §2, §3

PfCRT^Dd2 [3] = biological target: T1, PfCRT^Dd2; test: [3H]CQ uptake into Xenopus oocytes, cis-inhibition by unlabelled solute; details: PfCRTDd2 oocytes, background [3H]CQ accumulation subtracted, normalised to oocyte type control
Excerpt: (§4) The orientation of PfCRT in the parasite’s DV membrane, and also in the oocyte plasma membrane, is such that its N- and C-termini extend into the cytosol. The oocytes were suspended in a reaction buffer adjusted to pH 5.5 to mimic the pH of the DV lumen[1],[2]. In this scenario, the transport of a substrate via PfCRT from the acidic extracellular solution into the oocyte cytosol[15] is analogous to the parasite’s PfCRT-mediated efflux of a substrate from the acidic DV and into the cytosol. Unless specified otherwise, this is the direction in which substrate transport was measured in the oocyte assays.
as §1
(§5) Ten oocytes were washed twice with the relevant ND96 buffer. […] The assay was terminated by removing the reaction buffer and washing the oocytes with ice-cold ND96 buffer. The oocytes were lysed in 10% (w/v) sodium dodecyl sulfate (SDS) and the radioactivity accumulated within each oocyte was measured with a MicroBeta^2 microplate liquid scintillation analyser (PerkinElmer).
as §3

PfCRT^Ecu1110 [4] = biological target: T2, PfCRT^Ecu1110; test: as above; details: for PfCRT-mediated [3H]CQ transport, cis-inhibition (% PfCRTEcu1110 control): PfCRTEcu1110 oocytes, background [3H]CQ accumulation subtracted, normalised to oocyte type control; for [3H]CQ transport (% PfCRTEcu1110 control), cis-inhibition, PfCRTEcu1110: PfCRT-mediated component (background subtracted), sheet title says normalised to PfCRTDd2 control, mean ± SEM, SEM
Excerpt: as §4, §1, §5, §3

[5] = [test solute]i = 5 mM (intracellular)
[6] = [test solute]i = 45 mM (intracellular; 30 mM for some solutes due to solubility)
[7] = [test solute]i = 5 mM (injected)
[8] = [test solute]i = 45 mM (30 mM for some solutes due to solubility)

T1 sequence (Q9N623 whole entry A220S/I356T/K76T/M74I/N326S/N75E/Q271E/R371I): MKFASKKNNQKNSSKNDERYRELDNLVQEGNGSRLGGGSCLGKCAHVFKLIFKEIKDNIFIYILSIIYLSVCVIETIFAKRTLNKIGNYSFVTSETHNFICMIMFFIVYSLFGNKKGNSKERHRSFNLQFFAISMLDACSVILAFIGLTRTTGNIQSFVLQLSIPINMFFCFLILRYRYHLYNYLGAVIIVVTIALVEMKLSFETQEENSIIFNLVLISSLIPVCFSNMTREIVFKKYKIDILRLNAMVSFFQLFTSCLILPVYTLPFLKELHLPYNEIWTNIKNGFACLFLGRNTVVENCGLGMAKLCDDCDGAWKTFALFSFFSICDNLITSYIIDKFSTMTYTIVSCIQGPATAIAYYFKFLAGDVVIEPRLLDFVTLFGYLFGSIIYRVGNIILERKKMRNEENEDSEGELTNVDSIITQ

Row | Substance | PfCRT-mediated [3H]CQ transport, trans-stimulation (% PfCRTDd2 control) (PfCRT^Dd2 [1]; [5]) | PfCRT-mediated [3H]CQ transport, trans-stimulation (% PfCRTDd2 control) (PfCRT^Dd2 [1]; [6]) | [3H]CQ transport (% PfCRTDd2 control), trans-stimulation, PfCRTDd2 (PfCRT^Dd2 [1]; [7]) [% PfCRTDd2 control] | [3H]CQ transport (% PfCRTDd2 control), trans-stimulation, PfCRTDd2 (PfCRT^Dd2 [1]; [8]) [% PfCRTDd2 control] | PfCRT-mediated [3H]CQ transport, trans-stimulation (% PfCRTEcu1110 control) (PfCRT^Ecu1110 [2]; [5]) | PfCRT-mediated [3H]CQ transport, trans-stimulation (% PfCRTEcu1110 control) (PfCRT^Ecu1110 [2]; [6]) | [3H]CQ transport (% PfCRTDd2 control), trans-stimulation, PfCRTEcu1110 (PfCRT^Ecu1110 [2]; [7]) [% PfCRTEcu1110 control] | [3H]CQ transport (% PfCRTDd2 control), trans-stimulation, PfCRTEcu1110 (PfCRT^Ecu1110 [2]; [8]) [% PfCRTEcu1110 control] | PfCRT-mediated [3H]CQ transport, trans-stimulation (% PfCRT3D7 control) (PfCRT^3D7; [5]) | PfCRT-mediated [3H]CQ transport, trans-stimulation (% PfCRT3D7 control) (PfCRT^3D7; [6]) | PfCRT-mediated [3H]CQ transport, cis-inhibition (% PfCRTDd2 control) (PfCRT^Dd2 [3]; [test solute] = 0.5 mM) | PfCRT-mediated [3H]CQ transport, cis-inhibition (% PfCRTDd2 control) (PfCRT^Dd2 [3]; [test solute] = 1 mM) | PfCRT-mediated [3H]CQ transport, cis-inhibition (% PfCRTDd2 control) (PfCRT^Dd2 [3]; [test solute] = 2 mM) | PfCRT-mediated [3H]CQ transport, cis-inhibition (% PfCRTEcu1110 control) (PfCRT^Ecu1110 [4]; [test solute] = 0.5 mM) | PfCRT-mediated [3H]CQ transport, cis-inhibition (% PfCRTEcu1110 control) (PfCRT^Ecu1110 [4]; [test solute] = 1 mM) | PfCRT-mediated [3H]CQ transport, cis-inhibition (% PfCRTEcu1110 control) (PfCRT^Ecu1110 [4]; [test solute] = 2 mM) | [3H]CQ transport (% PfCRTEcu1110 control), cis-inhibition, PfCRTEcu1110 (PfCRT^Ecu1110 [4]; [test solute] = 0.5 mM) [% PfCRTEcu1110 control] | [3H]CQ transport (% PfCRTEcu1110 control), cis-inhibition, PfCRTEcu1110 (PfCRT^Ecu1110 [4]; [test solute] = 1 mM) [% PfCRTEcu1110 control] | [3H]CQ transport (% PfCRTEcu1110 control), cis-inhibition, PfCRTEcu1110 (PfCRT^Ecu1110 [4]; [test solute] = 2 mM) [% PfCRTEcu1110 control]
1 | DMPNALS [DS-7, host-derived peptide upstream of PL-4] | 97 ± 3.6 | 112 ± 3.5 | 97 ± 3.6 | 112 ± 3.5 | 128 ± 3.1 | 135 ± 4.2 | 39 ± 1.6 | 41 ± 1.9 | 136 ± 4.1 | 188 ± 4.6 | 49 ± 1.1 | 41 ± 1.0 | 27 ± 0.2 | 51 ± 4.1 | 48 ± 1.4 | 29 ± 1.5 | 16 ± 0.2 | 15 ± 0.4 | 9.0 ± 0.05
2 | DPENF [DEF-5] | 100 ± 2.1 | 112 ± 0.5 | 100 ± 2.1 | 112 ± 0.5 | 122 ± 1.9 | 137 ± 2.5 | 37 ± 1.5 | 41 ± 2.3 | 129 ± 3.2 | 162 ± 4.2 | 29 ± 2.1 | 20 ± 1.1 | 11 ± 0.1 | 41 ± 2.7 | 28 ± 1.0 | 18 ± 0.3 | 13 ± 0.1 |  | 6.0 ± 0.3
3 | DPENFR [DR-6] | 100 ± 3.7 | 112 ± 4.3 | 100 ± 3.7 | 112 ± 4.3 | 118 ± 0.6 | 127 ± 4.2 | 36 ± 1.4 | 38 ± 1.5 | 137 ± 4.6 | 188 ± 5.7 | 38 ± 0.3 | 30 ± 1.0 | 17 ± 0.3 | 38 ± 1.3 | 35 ± 4.2 | 27 ± 0.1 |  | 11 ± 0.1 | 9.0 ± 0.02
4 | DTSLKPIS [DS-8] | 95 ± 3.1 | 112 ± 1.2 |  |  | 127 ± 2.8 | 140 ± 4.1 |  |  | 135 ± 3.7 | 180 ± 3.4 | 40 ± 2.2 | 28 ± 0.6 | 19 ± 0.3 | 57 ± 2.1 | 42 ± 3.1 | 28 ± 1.3 |  |  | 
